Key:
mitochondrial DNA [1] = test: QPCR DNA damage assay, mtDNA, HUVEC; type: cell-based, human
Protocol: (§1) Human umbilical endothelial vein cells (HUVEC) and human aortic smooth muscle cells (HASMC) were maintained a t 37° C. and 5% CO2/95% air in Dulbecco's Modified Eagles Media (HASMC; Cell Gro) or M199 (HUVEC:Cell Gro) supplemented with 10% (HASMC) or 20% (HUVEC) heat inactivated fetal calf serum (Gibco/BRL), HEPES buffer (10 mM), glutamine, penicillin, and streptomycin. Flasks were routinely split every 3-4 days and disassociated for experiments using trypsin-EDTA (Gibco/BRL). Cells were treated with the various reactive oxygen species (controls mock treated with serum-free media) at 70-80% confluence, between passages 5-7.
Xanthine oxidase/lumazine and spermine NONOate were used as low dose O2^− and nitric oxide donors, respectively. SIN-1 (3-morpholinosydnonimine, hydrochloride, Molecular Probes) was used to generate higher, equimolar levels of nitric oxide and O2^−. Monolayer cultures in 60 mm plates (70%-80% confluent) were exposed to specific reactive oxygen species concentrations for dose response, and time-course experiments in serum-free, phenol red free minimum essential media (MEM) at 37° C. Control monolayers were mock-treated with serum-free and phenol red-free MEM alone. After treatment, cells were washed once with PBS and harvested immediately.
(§2) The QPCR assay measures the average degree of DNA damage per strand for the two template strands in the genomic segment of interest. […] Damage is assessed in the mitochondrial genome by amplifying a 16.2 kb product from the mitochondrial DNA template, and the nuclear genome by a 17.7 kb product from the β-globin gene cluster. […] Because differences in QPCR amplifications may at times be related to template copy number differences or simply due to the DNA quality unrelated to in vivo or in vitro mediated damage, a quantitative amplification of a small region is performed as a quality control (32). […]

[2] = system: 16S rRNA, ND2 and Cyt b transcripts; test: Northern transcript analysis, HASMC; type: cell-based, human; details: 0.5 mM, 60 min
Protocol: (§3) Human umbilical endothelial vein cells (HUVEC) and human aortic smooth muscle cells (HASMC) were maintained a t 37° C. and 5% CO2/95% air in Dulbecco's Modified Eagles Media (HASMC; Cell Gro) or M199 (HUVEC:Cell Gro) supplemented with 10% (HASMC) or 20% (HUVEC) heat inactivated fetal calf serum (Gibco/BRL), HEPES buffer (10 mM), glutamine, penicillin, and streptomycin. Flasks were routinely split every 3-4 days and disassociated for experiments using trypsin-EDTA (Gibco/BRL). Cells were treated with the various reactive oxygen species (controls mock treated with serum-free media) at 70-80% confluence, between passages 5-7. […] SIN-1 (3-morpholinosydnonimine, hydrochloride, Molecular Probes) was used to generate higher, equimolar levels of nitric oxide and O2^-. Monolayer cultures in 60 mm plates (70%-80% confluent) were exposed to specific reactive oxygen species concentrations for dose response, and time-course experiments in serum-free, phenol red free minimum essential media (MEM) at 37° C. Control monolayers were mock-treated with serum-free and phenol red-free MEM alone. […] Autoradiographs were scanned densitometrically (Molecular Dynamics Densitometer SI) and quantitated using IMAGEQUANT (Molecular Dynamics). In regard to the quantitation of mitochondrial transcript levels, any technique used to quantify mtRNA transcript levels would be applicable. […]

[3] = system: 16S rRNA, ND2 and Cyt b transcripts; test: Northern transcript analysis, HUVEC; type: cell-based, human; details: 0.5 mM, 60 min
Protocol: as §3

[4] = system: mitochondrial DNA encoded OXPHOS gene transcripts; β-actin; test: Northern transcript analysis, HUVEC and HASMC pooled statements; type: cell-based, human; details: peroxynitrite treatments
Protocol: as §3

[5] = system: mitochondrial protein synthesis; test: Mitochondrial protein synthesis (35S-methionine incorporation), HASMC; type: cell-based, human
Protocol: (§4) Human umbilical endothelial vein cells (HUVEC) and human aortic smooth muscle cells (HASMC) were maintained a t 37° C. and 5% CO2/95% air in Dulbecco's Modified Eagles Media (HASMC; Cell Gro) or M199 (HUVEC:Cell Gro) supplemented with 10% (HASMC) or 20% (HUVEC) heat inactivated fetal calf serum (Gibco/BRL), HEPES buffer (10 mM), glutamine, penicillin, and streptomycin. Flasks were routinely split every 3-4 days and disassociated for experiments using trypsin-EDTA (Gibco/BRL). Cells were treated with the various reactive oxygen species (controls mock treated with serum-free media) at 70-80% confluence, between passages 5-7. […] SIN-1 (3-morpholinosydnonimine, hydrochloride, Molecular Probes) was used to generate higher, equimolar levels of nitric oxide and O2^−. Monolayer cultures in 60 mm plates (70%-80% confluent) were exposed to specific reactive oxygen species concentrations for dose response, and time-course experiments in serum-free, phenol red free minimum essential media (MEM) at 37° C. Control monolayers were mock-treated with serum-free and phenol red-free MEM alone. After treatment, cells were washed once with PBS and harvested immediately. Methods for mitochondrial protein synthesis analyses have been described (37). […] Cells were trypsinized, and washed with PBS. […] Gels were dried onto Whatman filter paper, and exposed to Kodak XAR film at −80° C. The percent labeling of the translation products was determined by densitometry (Molecular Dynamics Densitometer SI) of all bands for untreated and treated samples. The sum of labeling of the bands for each sample was used to calculate the relative levels of incorporation. In regard to the quantitation of mitochondrial protein levels, any technique used to quantify mitochondrial protein synthesis levels would be applicable. Statistical analysis was performed using the independent Student's t test.

[6] = system: mitochondrial protein synthesis; test: Mitochondrial protein synthesis (35S-methionine incorporation), HUVEC; type: cell-based, human
Protocol: as §4

[7] = system: mitochondrial protein synthesis; test: Mitochondrial protein synthesis, HUVEC and HASMC pooled statements; type: cell-based; details: Homo sapiens; 0.1 mM, cell line not stated
Protocol: Human umbilical endothelial vein cells (HUVEC) and human aortic smooth muscle cells (HASMC) were maintained a t 37° C. and 5% CO2/95% air in Dulbecco's Modified Eagles Media (HASMC; Cell Gro) or M199 (HUVEC:Cell Gro) supplemented with 10% (HASMC) or 20% (HUVEC) heat inactivated fetal calf serum (Gibco/BRL), HEPES buffer (10 mM), glutamine, penicillin, and streptomycin. Flasks were routinely split every 3-4 days and disassociated for experiments using trypsin-EDTA (Gibco/BRL). Cells were treated with the various reactive oxygen species (controls mock treated with serum-free media) at 70-80% confluence, between passages 5-7. […] SIN-1 (3-morpholinosydnonimine, hydrochloride, Molecular Probes) was used to generate higher, equimolar levels of nitric oxide and O2^−. Monolayer cultures in 60 mm plates (70%-80% confluent) were exposed to specific reactive oxygen species concentrations for dose response, and time-course experiments in serum-free, phenol red free minimum essential media (MEM) at 37° C. […] The percent labeling of the translation products was determined by densitometry (Molecular Dynamics Densitometer SI) of all bands for untreated and treated samples. […] In regard to the quantitation of mitochondrial protein levels, any technique used to quantify mitochondrial protein synthesis levels would be applicable. […]

[8] = system: complex II, succinate dehydrogenase; test: MTT reduction (mitochondrial respiration), HASMC; type: cell-based, human; details: 1 hour
Protocol: (§5) Reduction of MTT at complex II was used to assess mitochondrial respiration (38-42). Cells were seeded in 96 well plates at a density of 8,000 cells/well and incubated at 37° C. […] Absorbance values were converted to MTT reduction using a standard curve generated with known numbers of viable cells. MTT reduction for treated samples was then normalized to non-treated control samples and is reported as a fraction of control. Total ATP levels were determined using an ATP determination kit (Molecular Probes, A-6608) and a MicroLumat Plus LB (EG&G Berthold) micro-injector luminometer. Briefly, this assay is based upon luciferin-luciferase bioluminescence (˜560 nm) in the presence of ATP. This assay is extremely sensitive; most luminometers can detect as little as 0.1 picomole of pre-existing ATP, or ATP as it is being formed in kinetic systems. Statistical analysis was performed using the independent Student's t test.

[9] = system: complex II, succinate dehydrogenase; test: MTT reduction (mitochondrial respiration), HUVEC; type: cell-based, human; details: 1 hour
Protocol: as §5

HASMC = test: Total ATP determination, HASMC; type: cell-based, human; details: 1 hour
Protocol: as §5

HUVEC = test: Total ATP determination, HUVEC; type: cell-based, human; details: 1 hour
Protocol: as §5

recombinant human MnSOD = molecular target: T1, recombinant human MnSOD (Homo sapiens, UniProt P04179); details: cited from earlier work
T1 sequence (P04179 25-222): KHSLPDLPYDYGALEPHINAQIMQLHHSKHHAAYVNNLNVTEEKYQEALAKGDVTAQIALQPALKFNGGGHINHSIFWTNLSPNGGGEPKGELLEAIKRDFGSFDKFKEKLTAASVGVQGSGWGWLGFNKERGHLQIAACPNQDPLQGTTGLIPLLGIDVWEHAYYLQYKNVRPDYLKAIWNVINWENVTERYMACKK

mitochondrial DNA [10] = test: QPCR DNA damage assay, mtDNA, HASMC; type: cell-based, human; details: 0.2 mM, time course 0-60 minutes
Protocol: as §1
(§6) Xanthine oxidase/lumazine and spermine NONOate were used as low dose O2^− and nitric oxide donors, respectively. […]
as §2

[11] = system: nDNA (β-globin gene cluster); test: QPCR DNA damage assay, nDNA, HUVEC; type: cell-based, human; details: 0.2 mM, time course 0-60 minutes
Protocol: as §1, §6, §2

[12] = Homo sapiens, 0.5 mM, read-out: protein labeling, % of control

Question: For NCCCNCCCCN(CCCN)/[N+]([O-])=N/O [spermine NONOate], which “DNA damage (in words)” value (mitochondrial DNA [1]; sustained nitric oxide generation 0.5 mM/ml/min, cell line not named in the clause (HUVEC context)) is on record?
Answer: did no t cause DNA damage

Question: Which “decrease in ND2 and Cyt b transcript levels” value [2] does the source give for O=NOO [peroxynitrite] here?
Answer: 55%

Question: What about the “reduction of 16S rRNA levels” value [2] of the same molecule?
Answer: 14%

Question: And the “decrease of 16S rRNA levels” value [3]?
Answer: 26%

Question: And the “transcript levels of the nuclear β-actin gene” value [4]?
Answer: unaffected

Question: What about the “35S-Methionine Incorporation Compared to Control” value [5] of the same molecule?
Answer: 30%

Question: What about the “35S-Methionine Incorporation Compared to Control” value ([5]; 0.1 mM) of the same molecule?
Answer: 88%

Question: And the “decrease in 35S-methionine incorporation” value ([5]; 0.1 mM)?
Answer: 12%

Question: What about the activity at 500 µM [5, 12] of the same molecule?
Answer: 30%

Question: What about the “35S-Methionine Incorporation Compared to Control” value [6] of the same molecule?
Answer: 45%

Question: What about the “loss of mitochondrial protein synthesis compared to untreated cells” value ([6]; 0.5 mM) of the same molecule?
Answer: 55%

Question: And the activity at 500 µM [6, 12]?
Answer: 45%

Question: And the inhibition at 100 µM [7]?
Answer: 10%

Question: What about the “complex II reduction of MTT (mitochondrial respiration), in words” value (“complex II reduction of MTT” below) ([8]; 0.1 mM) of the same molecule?
Answer: did not result in a significant decrease

Question: And the “complex II reduction of MTT” value ([8]; 0.5 mM, P=0.008)?
Answer: significant decline

Question: And the “complex II reduction of MTT” value ([9]; 0.1 mM)?
Answer: did not result in a significant decrease

Question: What about the “complex II reduction of MTT” value ([9]; 0.5 mM, P=0.02) of the same molecule?
Answer: significant decline

Question: What about the “total ATP (in words)” value (HASMC; 0.1 mM) of the same molecule?
Answer: did not result in a significant reduction

Question: What about the “total ATP (in words)” value (HASMC; 0.5 mM, P=0.04) of the same molecule?
Answer: significant decreases

Question: What about the “total ATP (in words)” value (HUVEC; 0.1 mM) of the same molecule?
Answer: did not result in a significant reduction

Question: And the “total ATP (in words)” value (HUVEC; 0.5 mM, P=0.02)?
Answer: significant decreases

Question: And the “inhibition of MnSOD enzymatic activity” value (recombinant human MnSOD)?
Answer: complete inhibition

Question: For OO [H2O2, hydrogen peroxide], which “time at which significant mitochondrial DNA damage occurred” value (mitochondrial DNA [10]) is on record?
Answer: ≤ 15 min

Question: And the “time at which significant mitochondrial DNA damage occurred” value (mitochondrial DNA [1]; HUVEC, 0.2 mM, time course 0-60 minutes)?
Answer: ≤ 10 min

Question: And the “treatment time required before significant nDNA (β-globin) damage” value [11]?
Answer: 60 min

Question: And the “35S-Methionine Incorporation Compared to Control” value ([5]; 0.2 mM)?
Answer: 67%

Question: And the “35S-Methionine Incorporation Compared to Control” value ([6]; 0.2 mM)?
Answer: 77%

Question: For catalase, which “effect of pretreatment on O2^- induced mitochondrial DNA damage” value (mitochondrial DNA [1]; HUVEC, O2^- 2 mM/ml/minute) is on record?
Answer: prevented

From patent US7267946B2, “Mitochondrial DNA damage as a predictor of coronary atherosclerotic heart disease” (Research Development Foundation, priority 1999, dated 2007)
